Measured values from patent US20260285853A1, “COMPOUNDS AND METHODS FOR MODULATING SPLICING” (REMIX THERAPEUTICS INC., priority 2023, published 2026).
pIC50: −log10 of the molar value.

Experiments:
Format in all cases: cell-based
HTT mRNA [1] = test: Splicing RT-qPCR assay (THP), Table 2A; conditions: Table 2A (THP); for AC50: AJ mRNA increase, read-out: HTT AJ (increase in alternative junction mRNA, AC50); for pIC50: CJ mRNA decrease, read-out: HTT CJ (decrease in canonical junction mRNA, IC50)
HTT mRNA [2] = test: Gene panel canonical junction qPCR assay, decrease in CJ mRNA, Table 3; conditions: decrease in canonical junction (CJ) mRNA, gene panel qPCR, Table 3
Method in brief: (§1)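 A673 cells were plated, left to adhere for 24 h, then dosed; K562 cells were plated in 96- or 384-well format and dosed directly. Both were incubated 24 h at 37 °C with an 11-point 3-fold series (top 10 uM final). Canonical junction mRNA was then read by cDNA synthesis and qPCR.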

MYB mRNA [3] = test: as above; conditions: decrease in canonical junction (CJ) mRNA, gene panel qPCR, Table 3
Method in brief: as §1

MYB mRNA [4] = test: Splicing RT-qPCR assay (THP), Table 2A; conditions: Table 2A (THP); for AC50: AJ mRNA increase, read-out: MYB AJ (increase in alternative junction mRNA, AC50); for pIC50: CJ mRNA decrease, read-out: MYB CJ (decrease in canonical junction mRNA, IC50)
[5] = tested on: SH-SY5Y (human neuroblastoma) cells; test: Cell viability, Cell Titer Glo 2.0 assay; conditions: read-out: Viability SHSY5Y.3 GI50
Method in brief: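 SH-SY5Y neuroblastoma cells are exposed to test compounds for 72 hours at 37 °C and 5% CO2, with final DMSO held at 0.1%. Cell viability is then measured with the CellTiter-Glo 2.0 assay.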

CCNC1(C)CCN(c2ccc(C(=O)Nc3cn4cc(C)nc(C)c4c3F)c3nn(C)cc23)CC1 [Compound 571, 4-[4-(ethylamino)-4-methyl-1-piperidyl]-N-(8-fluoro-1,3-dimethyl-pyrrolo[1,2-a]-pyrazin-7-yl)-2-methyl-indazole-7-carboxamide]
AC50 (HTT mRNA [1]): > 10 µM | pIC50 (HTT mRNA [1]): < 5.00 | pIC50 (HTT mRNA [2]): < 5.00 | pIC50 (MYB mRNA [3]): 5.00 to 6.00 | AC50 (MYB mRNA [4]): 1 to 10 µM | pIC50 (MYB mRNA [4]): 5.00 to 6.00 | GI50 [5]: 1 to 10 µM

CCNC1CCN(c2ccc(C(=O)Nc3nc4c(C)nc(C)cc4[nH]3)c3nn(C)cc23)CC1 [Compound 572, N-(4,6-dimethyl-1H-imidazo[4,5-c]-pyridin-2-yl)-4-[4-(ethylamino)-1-piperidyl]-2-methyl-indazole-7-carboxamide]
AC50 (HTT mRNA [1]): > 10 µM | pIC50 (HTT mRNA [1]): 5.00 to 6.00 | pIC50 (HTT mRNA [2]): 5.00 to 6.00 | pIC50 (MYB mRNA [3]): 5.00 to 6.00 | AC50 (MYB mRNA [4]): 1 to 10 µM | pIC50 (MYB mRNA [4]): 5.00 to 6.00 | GI50 [5]: 1 to 10 µM

COc1cn2nc(C)nc2cc1NC(=O)c1ccc(N2CCC(NC3CC3)CC2)c2cn(C)nc12 [Compound 573, 4-[4-(cyclopropylamino)-1-piperidyl]-N-(6-methoxy-2-methyl-[1,2,4]triazolo-[1,5-a]-pyridin-7-yl)-2-methyl-indazole-7-carboxamide]
AC50 (HTT mRNA [1]): > 10 µM | pIC50 (HTT mRNA [1]): < 5.00 | pIC50 (HTT mRNA [2]): < 5.00 | pIC50 (MYB mRNA [3]): < 5.00 | AC50 (MYB mRNA [4]): > 10 µM | pIC50 (MYB mRNA [4]): < 5.00 | GI50 [5]: > 10 µM

COc1cc2nccn2cc1NC(=O)c1ccc(N2CCC(NC3CC3)CC2)c2cn(C)nc12 [Compound 574, 4-[4-(cyclopropylamino)-1-piperidyl]-N-(7-methoxy-imidazo[1,2-a]pyridin-6-yl)-2-methylindazole-7-carboxamide]
AC50 (HTT mRNA [1]): > 10 µM | pIC50 (HTT mRNA [1]): < 5.00 | pIC50 (HTT mRNA [2]): < 5.00 | pIC50 (MYB mRNA [3]): < 5.00 | AC50 (MYB mRNA [4]): > 10 µM | pIC50 (MYB mRNA [4]): < 5.00 | GI50 [5]: 1 to 10 µM

Cc1cn2cc(NC(=O)c3ccc(N4CCC(NCC5CC5)CC4)c4cn(C)nc34)nc2c(C)n1 [Compound 575]
AC50 (HTT mRNA [1]): > 10 µM | pIC50 (HTT mRNA [1]): < 5.00 | pIC50 (HTT mRNA [2]): < 5.00 | pIC50 (MYB mRNA [3]): 5.00 to 6.00 | AC50 (MYB mRNA [4]): 0.1 to 1 µM | pIC50 (MYB mRNA [4]): 5.00 to 6.00 | GI50 [5]: 1 to 10 µM

CCNC1CC2(C1)CN(c1ccc(C(=O)Nc3cn4cc(C)nc(C)c4n3)c3nn(C)cc13)C2 [Compound 576]
AC50 (HTT mRNA [1]): > 10 µM | pIC50 (HTT mRNA [1]): < 5.00 | pIC50 (HTT mRNA [2]): < 5.00 | pIC50 (MYB mRNA [3]): < 5.00 | AC50 (MYB mRNA [4]): > 10 µM | pIC50 (MYB mRNA [4]): < 5.00 | GI50 [5]: 1 to 10 µM

COc1cc2nn(C)cc2cc1NC(=O)c1ccc(N2CCC(NCC3CC3)CC2)c2cn(C)nc12 [Compound 577]
AC50 (HTT mRNA [1]): 1 to 10 µM | pIC50 (HTT mRNA [1]): 5.00 to 6.00 | pIC50 (HTT mRNA [2]): 5.00 to 6.00 | pIC50 (MYB mRNA [3]): 6.00 to 7.00 | AC50 (MYB mRNA [4]): < 0.1 µM | pIC50 (MYB mRNA [4]): 6.00 to 7.00 | GI50 [5]: 1 to 10 µM

CCNC1CC2(C1)CN(c1ccc(C(=O)Nc3cc4cn(C)nc4cc3OC)c3nn(C)cc13)C2 [Compound 578]
AC50 (HTT mRNA [1]): 0.1 to 1 µM | pIC50 (HTT mRNA [1]): 6.00 to 7.00 | pIC50 (HTT mRNA [2]): 6.00 to 7.00 | pIC50 (MYB mRNA [3]): 6.00 to 7.00 | AC50 (MYB mRNA [4]): 0.1 to 1 µM | pIC50 (MYB mRNA [4]): 6.00 to 7.00 | GI50 [5]: 0.1 to 1 µM

Cc1cn2cc(NC(=O)c3ccc(N4CCC(NC5CC5)CC4)c4cn(C)nc34)nc2c(-c2cnn[nH]2)n1 [Compound 579, 4-(4-(cyclopropylamino)piper-idin-1-yl)-2-methyl-N-(6-methyl-8-(1H-1,2,3-triazol-5-yl)-imidazo[1,2-a]pyrazin-2-yl)-2H-indazole-7-carbox-amide 2,2,2-trifluoroacetate]
AC50 (HTT mRNA [1]): > 10 µM | pIC50 (HTT mRNA [1]): < 5.00 | pIC50 (HTT mRNA [2]): < 5.00 | pIC50 (MYB mRNA [3]): < 5.00 | AC50 (MYB mRNA [4]): > 10 µM | pIC50 (MYB mRNA [4]): < 5.00 | GI50 [5]: > 10 µM

Cc1cn2cc(NC(=O)c3ccc(N4CCC(N)CC4)c4cn(C)nc34)c(F)c2c(C)n1 [Compound 580, 4-(4-amino-1-piperidyl)-N-(8-fluoro-1,3-dimethyl-pyrrolo[1,2-a]-pyrazin-7-yl)-2-methyl-indazole-7-carboxamide]
AC50 (HTT mRNA [1]): > 10 µM | pIC50 (HTT mRNA [1]): < 5.00 | pIC50 (HTT mRNA [2]): < 5.00 | pIC50 (MYB mRNA [3]): 5.00 to 6.00 | AC50 (MYB mRNA [4]): 1 to 10 µM | pIC50 (MYB mRNA [4]): 5.00 to 6.00 | GI50 [5]: 0.1 to 1 µM

CNC1CCN(c2ccc(C(=O)Nc3cn4cc(C)nc(C)c4c3F)c3nn(C)cc23)CC1 [Compound 581, N-(8-fluoro-1,3-dimethyl-pyrrolo[1,2-a]-pyrazin-7-yl)-2-methyl-4-[4-(methylamino)-1-piperidyl]indazole-7-carboxamide]
AC50 (HTT mRNA [1]): > 10 µM | pIC50 (HTT mRNA [1]): < 5.00 | pIC50 (HTT mRNA [2]): < 5.00 | pIC50 (MYB mRNA [3]): 5.00 to 6.00 | AC50 (MYB mRNA [4]): 1 to 10 µM | pIC50 (MYB mRNA [4]): 5.00 to 6.00 | GI50 [5]: 1 to 10 µM

Cc1cc2[nH]c(NC(=O)c3ccc(N4CCC(NC5CC5)CC4)c4cn(C)nc34)nc2c(C)n1 [Compound 582, 4-[4-(cyclopropylamino)-1-piperidyl]-N-(4,6-dimethyl-1H-imidazo[4,5-c]pyridin-2-yl)-2-methyl-indazole-7-carboxamide]
AC50 (HTT mRNA [1]): > 10 µM | pIC50 (HTT mRNA [1]): < 5.00 | pIC50 (HTT mRNA [2]): < 5.00 | pIC50 (MYB mRNA [3]): < 5.00 | AC50 (MYB mRNA [4]): > 10 µM | pIC50 (MYB mRNA [4]): < 5.00 | GI50 [5]: 1 to 10 µM

CCNC1CCN(c2ccc(C(=O)Nc3nc4c(C)nc(C)cc4n3C)c3nn(C)cc23)CC1 [Compound 583, 4-[4-(ethylamino)-1-piperidyl]-2-methyl-N-(1,4,6-trimethyl-imidazo[4,5-c]pyridin-2-y1)-indazole-7-carboxamide]
AC50 (HTT mRNA [1]): 1 to 10 µM | pIC50 (HTT mRNA [1]): 5.00 to 6.00 | pIC50 (HTT mRNA [2]): 5.00 to 6.00 | pIC50 (MYB mRNA [3]): < 5.00 | AC50 (MYB mRNA [4]): > 10 µM | pIC50 (MYB mRNA [4]): < 5.00 | GI50 [5]: > 10 µM

C[C@H]1CN(c2ccc(C(=O)Nc3cc(F)c4nn(C)cc4c3)c3nn(C)cc23)C[C@H](C)N1 [Compound 584, 4-[(3S, 5S)-3,5-dimethylpiperazin-1-yl]-N-(7-fluoro-2-methyl-indazol-5-yl)-2-methyl-indazole-7-carboxamide]
AC50 (HTT mRNA [1]): 1 to 10 µM | pIC50 (HTT mRNA [1]): 5.00 to 6.00 | pIC50 (HTT mRNA [2]): 5.00 to 6.00 | pIC50 (MYB mRNA [3]): > 7.00 | AC50 (MYB mRNA [4]): < 0.1 µM | pIC50 (MYB mRNA [4]): > 7.00 | GI50 [5]: 0.1 to 1 µM

Cc1cn2cc(NC(=O)c3ccc(N4C[C@H](C)N[C@@H](C)C4)c4cn(C)nc34)cc(F)c2n1 [Compound 588, 4-[(3S, 5S)-3,5-dimethylpiperazin-1-yl]-N-(8-fluoro-2-methyl-imidazo[1,2-a]pyridin-6-yl)-2-methyl-indazole-7-carboxamide]
AC50 (HTT mRNA [1]): 1 to 10 µM | pIC50 (HTT mRNA [1]): 5.00 to 6.00 | pIC50 (HTT mRNA [2]): 5.00 to 6.00 | pIC50 (MYB mRNA [3]): > 7.00 | AC50 (MYB mRNA [4]): < 0.1 µM | pIC50 (MYB mRNA [4]): > 7.00 | GI50 [5]: 0.1 to 1 µM

CNC1CCC(Oc2ccc(C(=O)Nc3cn4cc(C)nc(C)c4n3)c3nn(C)cc23)CC1 (stereo not drawn) [Compound 592]
AC50 (HTT mRNA [1]): 1 to 10 µM | pIC50 (HTT mRNA [1]): 5.00 to 6.00 | pIC50 (HTT mRNA [2]): 5.00 to 6.00 | pIC50 (MYB mRNA [3]): 5.00 to 6.00 | AC50 (MYB mRNA [4]): 1 to 10 µM | pIC50 (MYB mRNA [4]): 5.00 to 6.00 | GI50 [5]: 1 to 10 µM

CNC1CCCC(Oc2ccc(C(=O)Nc3cn4cc(C)nc(C)c4n3)c3nn(C)cc23)C1 (stereo not drawn) [Compound 593]
AC50 (HTT mRNA [1]): > 10 µM | pIC50 (HTT mRNA [1]): < 5.00 | pIC50 (HTT mRNA [2]): < 5.00 | pIC50 (MYB mRNA [3]): < 5.00 | AC50 (MYB mRNA [4]): > 10 µM | pIC50 (MYB mRNA [4]): < 5.00 | GI50 [5]: > 10 µM

CNC1CCC(Oc2ccc(C(=O)Nc3cn4cc(C)nc(C)c4n3)c3nn(C)cc23)C1 (stereo not drawn) [Compound 594]
AC50 (HTT mRNA [1]): > 10 µM | pIC50 (HTT mRNA [1]): < 5.00 | pIC50 (HTT mRNA [2]): < 5.00 | pIC50 (MYB mRNA [3]): < 5.00 | AC50 (MYB mRNA [4]): > 10 µM | pIC50 (MYB mRNA [4]): < 5.00 | GI50 [5]: > 10 µM
